# Measurements published in PMC11762167, “G Protein-Coupled Receptor 17 Inhibits Glucagon-like Peptide-1 Secretion via a Gi/o-Dependent Mechanism in Enteroendocrine Cells” (Biomolecules, 2024).
# pEC50, pIC50: −log10 of the molar value.
# How the values were obtained:
# Assay type in all cases: cell-based
# hGPR17L [1] = target: T1, hGPR17L (Homo sapiens, UniProt Q13304); assay: Endpoint cAMP (HTRF) in GLUTag cells expressing hGPR17L; parameters: host or cells: GLUTag cells (murine enteroendocrine line), adenoviral transduction; Mean Diff. of cAMP, MDL29,951 vs FSK alone (Tukey): unit not given here; conditions: for Mean Diff. of cAMP, MDL29,951 vs FSK alone (Tukey): hGPR17L
# T1 sequence (Q13304 whole entry): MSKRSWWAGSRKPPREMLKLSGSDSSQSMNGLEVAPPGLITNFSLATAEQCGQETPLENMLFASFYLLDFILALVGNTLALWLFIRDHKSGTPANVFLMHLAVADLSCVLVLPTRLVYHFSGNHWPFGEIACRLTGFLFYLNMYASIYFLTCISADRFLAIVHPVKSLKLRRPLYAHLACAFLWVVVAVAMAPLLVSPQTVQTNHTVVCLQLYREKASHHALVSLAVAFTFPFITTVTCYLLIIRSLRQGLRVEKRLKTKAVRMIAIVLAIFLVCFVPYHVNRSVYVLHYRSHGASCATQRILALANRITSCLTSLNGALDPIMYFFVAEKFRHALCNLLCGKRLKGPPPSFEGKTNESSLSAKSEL
# Procedure: GLUTag cells were maintained in Dulbecco’s Modified Eagle Medium (DMEM) supplemented with 10% fetal bovine serum and 1% penicillin–streptomycin in a humidified incubator at 37 °C and 5% CO2. For adenovirus transduction, GLUTag cells were seeded into poly-D-lysine coated 96-well plates or 4-chamber slides. The next day, cells were transduced with adenoviruses (100–1250 viral particles per cell at time of seeding) as indicated. After 24–30 h, adenovirus-containing media was changed to serum-free growth media for overnight serum starvation. The following day, GLUTag cells were used for cAMP or calcium signaling assays, GLP-1 secretion assays, or immunostaining and imaging.
# Endpoint cAMP measurements were conducted as follows. GLUTag cells were seeded into poly-D-lysine-coated 96-well plates and transduced with adenovirus as specified above and then tested for cAMP signaling. Medium was removed and cells were washed with cAMP stimulation buffer (Hanks’ balanced salt solution (HBSS), 20 mM HEPES, pH 7.4) and then incubated in cAMP stimulation buffer for 30 min at 37 °C and 5% CO2. Cells were then treated for 30 min with agonist and forskolin in the presence of 500 µM IBMX at 37 °C and 5% CO2. Stimulation buffer was then decanted, and cAMP lysis buffer (50 mM HEPES, 10 mM CaCl2, 0.35% Triton X-100, and 500 µM IBMX) was added and shaken at 700 rpm for 1 h. Lysate was transferred to a 384-well plate, and the cAMP levels were quantified using the Cisbio HTRF cAMP (Gi kit; Revvity, Waltham, MA, USA) according to the manufacturer’s protocol.
# hGPR17S = target: T2, hGPR17S (Homo sapiens, UniProt Q13304); assay: Membrane β-arrestin recruitment in HEK293 cells transfected with hGPR17S
# T2 construct: host or cells: HEK293 cells (ATCC CRL-1573), transient transfection
# T2 sequence (Q13304 29-367): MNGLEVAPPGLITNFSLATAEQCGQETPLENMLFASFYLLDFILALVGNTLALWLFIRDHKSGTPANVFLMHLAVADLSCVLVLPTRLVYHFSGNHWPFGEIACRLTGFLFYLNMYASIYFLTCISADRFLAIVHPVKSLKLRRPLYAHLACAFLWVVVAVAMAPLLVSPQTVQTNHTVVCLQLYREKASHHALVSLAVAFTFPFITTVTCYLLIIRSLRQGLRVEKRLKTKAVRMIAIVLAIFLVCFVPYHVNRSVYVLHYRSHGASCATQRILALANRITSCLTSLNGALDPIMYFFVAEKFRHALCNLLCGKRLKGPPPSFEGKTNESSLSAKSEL
# Procedure: Membrane β-arrestin recruitment measurements were conducted using a luminescent membrane β-arrestin recruitment reporter assay. HEK293 cells were seeded into white, opaque, poly-D-lysine-coated 96-well plates and transiently transfected using Lipofectamine 3000 (Thermo Fisher Scientific, Waltham, MA, USA) according to the manufacturer’s protocol on the following day. At 48 h post-transfection, cells were washed twice with assay buffer (HBSS, 20 mM HEPES, pH 7.4) and allowed to equilibrate to room temperature for 15 min in assay buffer. Cells were then loaded with coelenterazine h (Nanolight Technology, Prolume Ltd., Lakeside, AZ, USA; 5 µM final concentration) for 5 min in the dark. Luminescence was read using a SpectraMax iD3 (Molecular Devices) with 1 s integration time. Baseline luminescence was read every 2 min for 6 min. Agonist was added and then luminescence was read every 2 min for 30 min.
# mGPR17 = mGPR17 (Mus musculus, UniProt Q6NS65); assay: GloSensor cAMP in HEK293 cells transfected with mGPR17; parameters: host or cells: GLUTag cells, adenoviral transduction
# Sequence of mGPR17 (Q6NS65 whole entry): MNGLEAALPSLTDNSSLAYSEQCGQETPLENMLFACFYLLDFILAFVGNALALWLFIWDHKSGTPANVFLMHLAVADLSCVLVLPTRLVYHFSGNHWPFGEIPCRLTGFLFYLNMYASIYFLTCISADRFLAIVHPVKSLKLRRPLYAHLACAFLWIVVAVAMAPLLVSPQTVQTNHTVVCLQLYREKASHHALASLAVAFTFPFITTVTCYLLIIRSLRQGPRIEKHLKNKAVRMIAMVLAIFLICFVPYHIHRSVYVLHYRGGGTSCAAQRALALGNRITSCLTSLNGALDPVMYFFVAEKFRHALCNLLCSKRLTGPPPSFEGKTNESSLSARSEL
# Procedure: (§1) HEK293 cells were maintained and transfected as previously described.
# (§2) Live-cell, real-time cAMP measurements were performed using Promega (Madison, WI, USA) GloSensor cAMP luminescent biosensor technology. Glosensor cAMP experiments were conducted as previously described in GLUTag cells and HEK293 cells.
# hGPR17L [2] = target: T1, hGPR17L; assay: Calcium mobilization in HEK293 cells transfected with hGPR17L
# Procedure: as §1
# Calcium flux in HEK293 cells was measured as previously described.
# HEK293 cells = assay: GloSensor cAMP in HEK293 cells transfected with empty vector (EV); conditions: 100 μM MDL29,951, 3 µM forskolin
# Procedure: as §1, §2
# hGPR17L [3] = target: T1, hGPR17L; assay: GloSensor cAMP in HEK293 cells transfected with hGPR17L; parameters: host or cells: GLUTag cells (murine enteroendocrine line), adenoviral transduction
# Procedure: as §1, §2
# [4] = 3 µM forskolin, read-out: cAMP Potency EC50 (reversal of inhibition)
# [5] = 3 µM forskolin-stimulated GloSensor cAMP, read-out: cAMP Potency IC50
# [6] = 100 μM MDL29,951, 3 µM forskolin
structure (smiles),measurement,setting,value
"O=C(O)CCc1c(C(=O)O)[nH]c2cc(Cl)cc(Cl)c12 [MDL29,951]","Mean Diff. of cAMP, MDL29,951 vs FSK alone (Tukey)","hGPR17L [1]; log [MDL29,951] (M) -4.6",-0.593
same,"Mean Diff. of cAMP, MDL29,951 vs FSK alone (Tukey)","hGPR17L [1]; log [MDL29,951] (M) -5.2",-1.138
same,"Mean Diff. of cAMP, MDL29,951 vs FSK alone (Tukey)","hGPR17L [1]; log [MDL29,951] (M) -5.8",-1.598
same,"Mean Diff. of cAMP, MDL29,951 vs FSK alone (Tukey)","hGPR17L [1]; log [MDL29,951] (M) -6.4",-1.654
same,"Mean Diff. of cAMP, MDL29,951 vs FSK alone (Tukey)","hGPR17L [1]; log [MDL29,951] (M) -7.0",-1.376
same,"Mean Diff. of cAMP, MDL29,951 vs FSK alone (Tukey)","hGPR17L [1]; log [MDL29,951] (M) -7.6",-0.7263
same,"Mean Diff. of cAMP, MDL29,951 vs FSK alone (Tukey)","hGPR17L [1]; log [MDL29,951] (M) -8.2",-0.237
same,"Mean Diff. of cAMP, MDL29,951 vs FSK alone (Tukey)","hGPR17L [1]; log [MDL29,951] (M) -8.8",-0.04325
same,"Mean Diff. of cAMP, MDL29,951 vs FSK alone (Tukey)","hGPR17L [1]; log [MDL29,951] (M) -9.4",-0.0985
same,"Mean Diff. (Tukey's multiple comparisons test), cAMP, Row 10 vs. Row 11","hGPR17L [1]; hGPR17L-WT (1250), log [MDL29,951] (M) -4.0 vs. Vehicle, Forskolin stimulation, Figure 4B",-9.193
same,"Mean Diff. (Tukey's multiple comparisons test), cAMP, Row 9 vs. Row 11","hGPR17L [1]; hGPR17L-WT (1250), log [MDL29,951] (M) -4.6 vs. Vehicle, Forskolin stimulation, Figure 4B",-17.14
same,"Mean Diff. (Tukey's multiple comparisons test), cAMP, Row 8 vs. Row 11","hGPR17L [1]; hGPR17L-WT (1250), log [MDL29,951] (M) -5.2 vs. Vehicle, Forskolin stimulation, Figure 4B",-27.93
same,"Mean Diff. (Tukey's multiple comparisons test), cAMP, Row 7 vs. Row 11","hGPR17L [1]; hGPR17L-WT (1250), log [MDL29,951] (M) -5.8 vs. Vehicle, Forskolin stimulation, Figure 4B",-39.19
same,"Mean Diff. (Tukey's multiple comparisons test), cAMP, Row 6 vs. Row 11","hGPR17L [1]; hGPR17L-WT (1250), log [MDL29,951] (M) -6.4 vs. Vehicle, Forskolin stimulation, Figure 4B",-41.54
same,"Mean Diff. (Tukey's multiple comparisons test), cAMP, Row 5 vs. Row 11","hGPR17L [1]; hGPR17L-WT (1250), log [MDL29,951] (M) -7.0 vs. Vehicle, Forskolin stimulation, Figure 4B",-35.32
same,"Mean Diff. (Tukey's multiple comparisons test), cAMP, Row 4 vs. Row 11","hGPR17L [1]; hGPR17L-WT (1250), log [MDL29,951] (M) -7.6 vs. Vehicle, Forskolin stimulation, Figure 4B",-21.64
same,"Mean Diff. (Tukey's multiple comparisons test), cAMP, Row 3 vs. Row 11","hGPR17L [1]; hGPR17L-WT (1250), log [MDL29,951] (M) -8.2 vs. Vehicle, Forskolin stimulation, Figure 4B",-11.12
same,"Mean Diff. (Tukey's multiple comparisons test), cAMP, Row 2 vs. Row 11","hGPR17L [1]; hGPR17L-WT (1250), log [MDL29,951] (M) -8.8 vs. Vehicle, Forskolin stimulation, Figure 4B",-5.06
same,"Mean Diff. (Tukey's multiple comparisons test), cAMP, Row 1 vs. Row 11","hGPR17L [1]; hGPR17L-WT (1250), log [MDL29,951] (M) -9.4 vs. Vehicle, Forskolin stimulation, Figure 4B",-7.193
same,β-arrestin Emax (Peak ΔRLU/RLU),hGPR17S,0.50±0.04
same,β-arrestin Potency (pEC50),hGPR17S,6.62±0.08
same,pEC50,hGPR17S; read-out: β-arrestin Potency EC50,6.62
same,cAMP Maximum Inhibition (% Inhibition),mGPR17; 3 µM forskolin,61±3.4%
same,cAMP Potency (pEC50) (reversal of inhibition),mGPR17; 3 µM forskolin,4.74±0.23
same,cAMP Potency (pIC50),mGPR17; 3 µM forskolin,8.48±0.20
same,pEC50,mGPR17; [4],4.74
same,pIC50,mGPR17; [5],8.48
same,cAMP Effect of 100 μM MDL (% Inhibition),mGPR17; [6],45±6.3%
same,Calcium Emax (Mean Peak ΔF/F),hGPR17L [2],1.92±0.22
same,Calcium Potency (pEC50),hGPR17L [2],7.29±0.11
same,pEC50,hGPR17L [2]; read-out: Calcium Potency EC50,7.29
same,cAMP Effect of 100 μM MDL (% Inhibition),HEK293 cells,7.5±3.2%
same,cAMP Maximum Inhibition (% Inhibition),hGPR17L [3]; 3 µM forskolin,48±2.9%
same,cAMP Potency (pEC50) (reversal of inhibition),hGPR17L [3]; 3 µM forskolin,5.40±0.09
same,cAMP Potency (pIC50),hGPR17L [3]; 3 µM forskolin,8.52±0.08
same,pEC50,hGPR17L [3]; [4],5.40
same,pIC50,hGPR17L [3]; [5],8.52
same,cAMP Effect of 100 μM MDL (% Inhibition),hGPR17L [3]; [6],9.0±2.1%
